Where a name gives a salt, the structure may show the parent alone.

Broadly, the IC50 is the concentration that gives 50% inhibition. Low readings indicate higher potency, high ones lower potency. For orientation: ED50 means the dose at which the effect has come halfway, by size or by number of responders. Higher therefore signals a need for a large dose.

For the first experiment, the system named is human naso-pharyngeal cancer cell line KB. Put plainly: Test (b): inhibition of the EGF-stimulated growth of the human naso-pharyngeal cancer cell line KB. It counts as cell-based. The settings on record: 72 h, KB cells, EGF (10 ng/ml), 3 days, MTT. The protocol:
(b) An in vitro assay which determines the ability of a test compound to inhibit the EGF-stimulated growth of the human naso-pharyngeal cancer cell line KB.
KB cells were seeded into wells at a density of 1×10^4 -1.5×10^4 cells per well and grown for 24 hours in DHEM supplemented with 5% FCS (charcoal-stripped). Cell growth was determined after incubation for 3 days by the extent of metabolism of MTT tetrazolium dye to furnish a bluish colour. Cell growth was then determined in the presence of EGF (10 ng/ml) or in the presence of EGF (10 ng/ml) and a test compound at a range of concentrations. An IC50 value could then be calculated.
For `COc1cc2ncnc(Nc3ccc(Sc4ccccc4)c(Cl)c3)c2cc1OC` [4-(3-chloro-4-phenylthioanilino)-6,7-dimethoxyquinazoline], the concentration for half-maximal inhibition (IC50) amounted to 1300 nM.

For the compound `COc1cc2ncnc(Nc3ccc(C(=O)c4ccccc4)c(Cl)c3)c2cc1OC.Cl` [4-(4-benzoyl-3-chloroanilino)-6,7-dimethoxyquinazoline hydrochloride salt], half-maximal inhibition (IC50) required 380 nM.

For `COc1cc2ncnc(Nc3ccc(Cc4ccccc4)c(Cl)c3)c2cc1OC.I` [4-(4-benzyl-3-chloroanilino)-6,7-dimethoxyquinazoline hydroiodide salt], the IC50 was 1200 nM.

The compound `COc1cc2ncnc(Nc3ccc(Sc4nccn4C)c(Cl)c3)c2cc1OC` [4-[3-chloro-4-(1-methylimidazol-2-ylthio)anilino]-6,7-dimethoxyquinazolinedihydrochloride salt] yielded an IC50 of 200 nM.

Compound `COc1cc2ncnc(Nc3ccc(OCc4ccccn4)c(C)c3)c2cc1OC.Cl.Cl` [6,7-dimethoxy-4-[3-methyl-4-(2-pyridylmethoxy)anilino]quinazoline dihydrochloride salt] yielded a half-inhibitory concentration (IC50) of 930 nM. Against the preceding compound, the IC50 is about 4.7-fold higher.

`COc1cc2ncnc(Nc3ccc(OCc4ccccn4)c(C)c3)c2cc1OCCCN(C)C` [6-(3-dimethylaminopropoxy)-7-methoxy-4-[3-methyl-4-(2-pyridylmethoxy)anilino]quinazoline] yielded a half-maximal inhibitory concentration (IC50) of 430 nM.

Compound `COc1cc2ncnc(Nc3ccc(OCc4ccccn4)c(C)c3)c2cc1OCCCN1CCOCC1` [7-methoxy-4-[3-methyl-4-(2-pyridylmethoxy)anilino]-6-(3-morpholinopropoxy)quinazoline] registered an IC50 of 2090 nM. This IC50 is about 4.9-fold higher than that of the compound before.

The next experiment relates to another carcinoma which does not express EGF receptor tyrosine kinase.
Experiment: not given
The settings on record: Toi et al., 1990; cited from earlier work.
For the compound `O=CN/C=C/c1cc(O)ccc1O` [erbstatin], the “growth of carcinoma not expressing EGF receptor tyrosine kinase” value is “without effect on the growth”.

A further experiment deals with EGF receptor tyrosine kinase.
Experiment: not given
The settings on record: Fry et al., Science, 1994, 265, 1093; cited from earlier work.
As for `COc1cc2ncnc(Nc3cccc(Br)c3)c2cc1OC` [4-(3'-bromoanilino)-6,7-dimethoxyquinazoline], the “inhibitor of EGF receptor tyrosine kinase” value is reported as “highly potent inhibitor”.

In another experiment the target is T1, EGF receptor tyrosine kinase (Homo sapiens, UniProt P00533).
T1 construct: Receptor tyrosine kinase was obtained in partially purified form from A-431 cells; endogenous in cells; host or cells: A-431 cells (human vulval carcinoma)
T1 sequence (P00533 25-1210): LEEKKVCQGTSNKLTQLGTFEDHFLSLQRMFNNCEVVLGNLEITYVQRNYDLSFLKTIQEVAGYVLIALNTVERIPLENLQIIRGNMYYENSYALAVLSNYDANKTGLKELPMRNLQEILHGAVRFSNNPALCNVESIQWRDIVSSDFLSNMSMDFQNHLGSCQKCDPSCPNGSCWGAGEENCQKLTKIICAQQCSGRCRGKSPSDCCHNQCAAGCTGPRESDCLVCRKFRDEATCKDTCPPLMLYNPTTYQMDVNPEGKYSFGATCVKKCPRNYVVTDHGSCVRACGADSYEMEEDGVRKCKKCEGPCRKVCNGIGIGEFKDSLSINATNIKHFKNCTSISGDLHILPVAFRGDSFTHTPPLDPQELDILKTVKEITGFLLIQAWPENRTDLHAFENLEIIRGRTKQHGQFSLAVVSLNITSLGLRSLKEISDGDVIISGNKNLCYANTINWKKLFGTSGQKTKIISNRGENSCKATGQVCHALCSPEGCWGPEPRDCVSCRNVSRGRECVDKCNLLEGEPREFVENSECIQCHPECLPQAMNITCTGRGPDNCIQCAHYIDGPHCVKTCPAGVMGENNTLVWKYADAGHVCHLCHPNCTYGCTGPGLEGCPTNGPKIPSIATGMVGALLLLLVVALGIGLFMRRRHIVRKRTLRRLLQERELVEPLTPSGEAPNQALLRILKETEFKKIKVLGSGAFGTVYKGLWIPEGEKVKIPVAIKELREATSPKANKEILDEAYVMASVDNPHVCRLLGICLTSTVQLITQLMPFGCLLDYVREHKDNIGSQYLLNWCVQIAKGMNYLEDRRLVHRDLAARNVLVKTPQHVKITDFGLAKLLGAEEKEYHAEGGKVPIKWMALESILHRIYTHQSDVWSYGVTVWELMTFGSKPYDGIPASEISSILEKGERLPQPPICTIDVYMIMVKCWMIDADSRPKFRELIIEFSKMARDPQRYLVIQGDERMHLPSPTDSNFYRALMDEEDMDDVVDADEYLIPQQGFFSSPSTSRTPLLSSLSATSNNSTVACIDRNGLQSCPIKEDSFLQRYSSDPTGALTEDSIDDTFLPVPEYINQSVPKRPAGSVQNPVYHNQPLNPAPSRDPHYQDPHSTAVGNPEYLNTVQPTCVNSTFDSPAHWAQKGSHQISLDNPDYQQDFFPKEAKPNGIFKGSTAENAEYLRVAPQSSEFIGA
Put plainly: Test (a): in vitro inhibition of the enzyme EGF receptor tyrosine kinase (partially purified from A-431 cells). The settings on record: EGF receptor tyrosine kinase from A-431 cells. It counts as biochemical. The protocol: (a) An in vitro assay which determines the ability of a test compound to inhibit the enzyme EGF receptor tyrosine kinase. Receptor tyrosine kinase was obtained in partially purified form from A-431 cells (derived from human vulval carcinoma) by procedures related to those described by Carpenter et al., J. Biol. Chem., 1979, 254, 4884, Cohen et al., J. Biol. Chem., 1982, 257, 1523 and by Braun et al., J. Biol. Chem., 1984, 259, 2051.
A-431 cells were grown to confluence using Dulbecco's modified Eagle's medium (DHEM) containing 5% fetal calf serum (FCS). The obtained cells were homogenised in a hypotonic borate/EDTA buffer at pH 10.1. The homogenate was centrifuged at 400 g for 10 minutes at 0°-4° C. The supernatant was centrifuged at 25,000 g for 30 minutes at 0°-4° C. The pelleted material was suspended in 30 mM Hepes buffer at pH 7.4 containing 5% glycerol, 4 mM benzamidine and 1% Triton X-100, stirred for 1 hour at 0°-4° C., and recentrifuged at 100,000 g for 1 hour at 0°-4° C. The supernatant, containing solubilised receptor tyrosine kinase, was stored in liquid nitrogen.
For test purposes 40 μl of the enzyme solution so obtained was added to a mixture of 400 μl of a mixture of 150 mM Hepes buffer at pH 7.4, 500 μM sodium orthovanadate, 0.1% Triton X-100, 10% glycerol, 200 μl water, 80 μl of 25 mH DTT and 80 μl of a mixture of 12.5 mM manganese chloride, 125 mM magnesium chloride and distilled water. There was thus obtained the test enzyme solution.
Each test compound was dissolved in dimethylsulphoxide (DMSO) to give a 50 mM solution which was diluted with 40 mM Hepes buffer containing 0.1% Triton X-100, 10% glycerol and 10% DMSO to give a 500 μM solution. Equal volumes of this solution and a solution of epidermal growth factor (EGF; 20 μg/ml) were mixed.
[γ-^32 P]ATP (3000 Ci/mM, 250 μCi) was diluted to a volume of 2 ml by the addition of a solution of ATP (100 μM) in distilled water. An equal volume of a 4 mg/ml solution of the peptide Arg-Arg-Leu-Ile-Glu-Asp-Ala-Glu-Tyr-Ala-Ala-Arg-Gly in a mixture of 40 mH Hepes buffer at pH 7.4, 0.1% Triton X-100 and 10% glycerol was added.
The test compound/EGF mixture solution (5 μl) was added to the test enzyme solution (10 μl) and the mixture was incubated at 0°-4° C. for 30 minutes. The ATP/peptide mixture (10 μl) was added and the mixture was incubated at 25° C. for 10 minutes. The phosphorylation reaction was terminated by the addition of 5% trichloroacetic acid (40 μl) and bovine serum albumin (BSA; 1 mg/ml, 5 μl). The mixture was allowed to stand at 4° C. for 30 minutes and then centrifuged. An aliquot (40 μl) of the supernatant was placed onto a strip of Whatman p 81 phosphocellulose paper. The strip was washed in 75 mH phosphoric acid (4×10 ml) and blotted dry. Radioactivity present in the filter paper was measured using a liquid scintillation counter (Sequence A). The reaction sequence was repeated in the absence of the EGF (Sequence B) and again in the absence of the test compound (Sequence C).
Receptor tyrosine kinase inhibition was calculated as follows: [formula]
The extent of inhibition was then determined at a range of concentrations of test compound to give an IC50 value.
As for `COc1cc2ncnc(Nc3ccc(Sc4ccccc4)c(Cl)c3)c2cc1OC` [4-(3-chloro-4-phenylthioanilino)-6,7-dimethoxyquinazoline], half-maximal inhibition (IC50) was put at 80 nM.

`COc1cc2ncnc(Nc3ccc(C(=O)c4ccccc4)c(Cl)c3)c2cc1OC.Cl` [4-(4-benzoyl-3-chloroanilino)-6,7-dimethoxyquinazoline hydrochloride salt]: the IC50 was determined as 30 nM.

`COc1cc2ncnc(Nc3ccc(Cc4ccccc4)c(Cl)c3)c2cc1OC.I` [4-(4-benzyl-3-chloroanilino)-6,7-dimethoxyquinazoline hydroiodide salt] showed a half-maximal inhibitory concentration (IC50) of 100 nM.

`COc1cc2ncnc(Nc3ccc(Sc4nccn4C)c(Cl)c3)c2cc1OC` [4-[3-chloro-4-(1-methylimidazol-2-ylthio)anilino]-6,7-dimethoxyquinazolinedihydrochloride salt] yielded an IC50 of 7 nM.

`COc1cc2ncnc(Nc3ccc(OCc4ccccn4)c(C)c3)c2cc1OC.Cl.Cl` [6,7-dimethoxy-4-[3-methyl-4-(2-pyridylmethoxy)anilino]quinazoline dihydrochloride salt] had an IC50 of 40 nM.

Turning to `COc1cc2ncnc(Nc3ccc(OCc4ccccn4)c(C)c3)c2cc1OCCCN(C)C` [6-(3-dimethylaminopropoxy)-7-methoxy-4-[3-methyl-4-(2-pyridylmethoxy)anilino]quinazoline], it took 66 nM to reach half-maximal inhibition (IC50). This IC50 lies about 1.6-fold higher than the previous one.

`COc1cc2ncnc(Nc3ccc(OCc4ccccn4)c(C)c3)c2cc1OCCCN1CCOCC1` [7-methoxy-4-[3-methyl-4-(2-pyridylmethoxy)anilino]-6-(3-morpholinopropoxy)quinazoline] registered an IC50 of 450 nM.

The next experiment has as its system liver hepatocyte growth caused by the administration of the growth factor TGFα. Put plainly: Test (c): in vivo inhibition of TGFα-stimulated liver hepatocyte growth in male rats (BrdU uptake). The settings on record: Rattus norvegicus, usually oral, TGFα 400 μg/kg subcutaneously, approximate ED50, BrdU uptake. How it is done: (c) An in vivo assay in a group of male rats which determines the ability of a test compound (usually administered orally as a ball-milled suspension in 0.5% polysorbate) to inhibit the stimulation of liver hepatocyte growth caused by the administration of the growth factor TGFα (400 μg/kg subcutaneously, usually dosed twice, 3 and 7 hours respectively after the administration of the test compound).
In a control group of rats, the administration of TGFα causes on average a 5-fold stimulation of liver hepatocyte growth.
Cell-growth in the control and test animals is determined as follows:
On the morning of the day after the dosing of the test compound (or 0.5% polysorbate in the control group), the animals are dosed with bromodeoxyuridine (BrdU; 100 mg/kg intraperitoneally). The animals are killed four hours later and the livers are excised.
Further tests were carried out using a range of doses of the test compounds to allow the calculation of an approximate ED50 value for the inhibition of liver hepatocyte proliferation as determined by inhibition of the uptake of BrdU.
`COc1cc2ncnc(Nc3ccc(Sc4ccccc4)c(Cl)c3)c2cc1OC` [4-(3-chloro-4-phenylthioanilino)-6,7-dimethoxyquinazoline] yielded a median effective dose (ED50) of 12.5 mg/kg.

With `COc1cc2ncnc(Nc3ccc(C(=O)c4ccccc4)c(Cl)c3)c2cc1OC.Cl` [4-(4-benzoyl-3-chloroanilino)-6,7-dimethoxyquinazoline hydrochloride salt], the ED50 was < 5 mg/kg.

As for `COc1cc2ncnc(Nc3ccc(Cc4ccccc4)c(Cl)c3)c2cc1OC.I` [4-(4-benzyl-3-chloroanilino)-6,7-dimethoxyquinazoline hydroiodide salt], the ED50 is < 12.5 mg/kg.

Consider `COc1cc2ncnc(Nc3ccc(Sc4nccn4C)c(Cl)c3)c2cc1OC` [4-[3-chloro-4-(1-methylimidazol-2-ylthio)anilino]-6,7-dimethoxyquinazolinedihydrochloride salt], for which the ED50 is < 12.5 mg/kg.

Take `COc1cc2ncnc(Nc3ccc(OCc4ccccn4)c(C)c3)c2cc1OC.Cl.Cl` [6,7-dimethoxy-4-[3-methyl-4-(2-pyridylmethoxy)anilino]quinazoline dihydrochloride salt]: the ED50 was 5 mg/kg.

The next experiment relates to human mammary carcinoma which expresses EGF receptor tyrosine kinase.
Experiment: not given
The settings on record: athymic nude mice; Toi et al., 1990; cited from earlier work.
As to `O=CN/C=C/c1cc(O)ccc1O` [erbstatin], the “growth of transplanted carcinoma expressing EGF receptor tyrosine kinase” value is “specifically attenuates the growth”.

The values are drawn from patent US5821246A, “Aniline derivatives” (Zeneca Limited, priority 1994, dated 1998).
